Values quoted from earlier work in publication PMC11232374, “Safety, tolerability, and pharmacokinetics of HRS9432(A) injection in healthy Chinese subjects: a phase-I randomized, double-blind, dose escalation, placebo-controlled study” (Antimicrobial Agents and Chemotherapy, 2024).

Conditions: after a single intravenous dose
From the text: Echinocandin-class antifungal drugs currently available on the market include caspofungin, micafungin, and anidulafungin. The chemical structures of these drugs contribute to their relatively short half-life, necessitating daily administration in clinical practice ([3]). Rezafungin is a long-acting echinocandin antifungal drug, based on the structure of anidulafungin to enhance metabolic stability. […] The results of its Pha ...

Rezafungin
elimination half-life: 150 h
